Results on four molecules are retold here after ChEMBL document CHEMBL1154982, “Sesquiterpene lactones from Scorzonera austriaca” (J Nat Prod, 2010).

Holding throughout (assay type): functional, cell-based
Experiment [1] has as its system K562. Briefly: Cytotoxicity against human K562 cells by MTT assay.
Experiment [2] relates to HepG2. Description: Cytotoxicity against human HepG2 cells by MTT assay. (In general: Formazan colour is commonly taken as a measure of viable cells.)
Experiment [3] has as its system BGC-823. Description: Cytotoxicity against human BGC823 cells by MTT assay.
For experiment [4], the system named is K562. Briefly: Cytotoxicity against human adriamycin resistant K562 cells by MTT assay.

SMILES strings stand for the structures. pIC50: −log10 of the molar value. The source made the active and inactive calls. The rule behind the calls is not given here.

`C=C1[C@@H]2[C@H]3OC(=O)[C@@H](CNCC4CCC(=O)O4)[C@@H]3CCC(=C)[C@@H]2C[C@@H]1O[C@@H]1O[C@H](CO)[C@@H](O)[C@H](O)[C@H]1O` (stereo partly specified): the outcome in experiment [1], in experiment [2], in experiment [3] and in experiment [4] was inactive.

Regarding `CC1=CC(=O)C2=C(COC(=O)CC(C)C)C[C@H](OS(=O)(=O)O)[C@@H]3[C@H](OC(=O)[C@H]3C)[C@@H]12`, the outcome in experiment [1], in experiment [2], in experiment [3] and in experiment [4] was inactive.

Turning to `C=C1[C@@H]2[C@H]3OC(=O)[C@@H](CNCC4CCC(=O)O4)[C@@H]3CCC(=C)[C@@H]2C[C@@H]1O` (stereo partly specified) [SCORZOAUSTRIACIN], the pIC50 – broadly, the IC50 on a negative log10 scale, so that one unit is a factor of ten – in experiment [1] was 4.95. For the same molecule, the result in experiment [2], in experiment [3] and in experiment [4] was inactive.

For the molecule `CC1=CC(=O)C2=C(COC(=O)CC(C)C)C[C@H](O)[C@@H]3[C@H](OC(=O)[C@H]3C)[C@@H]12`, the outcome in experiment [1], in experiment [2], in experiment [3] and in experiment [4] was inactive.
